Measurements published in paper PMC12250893, “Systematic Characterization of In Vitro and In Vivo Metabolic Pathways and Identification of Novel Biomarkers of 26 Synthetic Cannabinoids” (Molecules, 2025).

Columns and labels:
[1] = Human liver microsomal incubation (in vitro metabolic model); conditions: HLM, 37 °C 1 h, then UDPGA 30 min; peak area of parent in experimental group vs degradation control group
Protocol: Each of the 26 SCs was configured to 1 mg/mL with acetonitrile. The HLMs, NADPH regeneration solution A, regeneration solution B, and UDPGA solution were thawed at 4 °C. An icebox was prepared, and all additional steps were performed on ice. For this, 10 µL of NADPH regeneration solution A, 2 µL of regeneration solution B, 2 µL of SCs standard, and 10 µL of mixed human liver microsomes were added to 176 µL of 0.1 mol/L phosphate buffer. The mixture was mixed thoroughly and incubated at 37 °C for 1 h. Subsequently, 20 µL of UDPGA solution was added and mixed well, followed by an additional incubation for 30 min. The reaction was stopped by adding 200 µL of ice-cold acetonitrile. Additionally, the negative control group and the degradation control group were set up following the same procedure. […] The unadded components were supplemented with an equal amount of phosphate buffer. All samples were centrifuged at a high speed of 13,500 r for 10 min after reaction termination. The supernatant was collected and subsequently passed through a membrane filter (0.45 μm) prior to sampling.
The samples were separated and analyzed using a UHPLC-Q-Exactive Orbitrap MS system (Thermo Fisher Scientific, Waltham, MA, USA), which comprised a Thermo-Scientific™ Q-Exactive™(Thermo Fisher Scientific, Waltham, MA, USA) quadrupole electrostatic field orbitrap mass spectrometer coupled to a Vanquish ultrahigh-performance liquid chromatography (UHPLC) system (Thermo Fisher Scientific, Waltham, MA, USA) with a heated electrospray ionization HESI source in the positive ionization mode. The samples were separated on an ACQUITY UPLC BEH C18 Column (100 × 2.1 mm, 1.7 μm) with the column temperature maintained at 30 °C. The chromatographic separation was achieved using a gradient elution program with mobile phase A consisting of 0.1% formic acid in water and mobile phase B containing 0.1% formic acid in acetonitrile. The gradient profile was programmed as follows: Initial conditions were maintained at 5% B from 0 to 1 min, followed by a linear increase to 95% B from 1 to 11 min; the 95% B composition was held from 11 to 15.5 min, then decreased back to 5% B from 15.5 to 16 min, and finally maintained at 5% B from 16 to 18 min. The flow rate was set at 0.3 mL/min, and the injection volume was 10 μL for all analyses.
The following HESI source conditions were adopted: Acquisition mode was set to positive ion mode; the capillary temperature was maintained at 325 °C, the auxiliary gas heater temperature was set to 350 °C, and the spray voltage was applied at 3.7 kV. The mass spectrometry analysis was carried out in full-scan (FS) mode to trigger data-dependent acquisition in tandem mass spectrometry (FS-ddMS^2) mode. The FS data acquisition was performed using the following parameters: a resolution of 60,000, an automatic gain control (AGC) target of 1 × 10^6, a scan range of m/z 66.7–1000, and a maximum injection time (IT) of 250 ms. The ddMS^2 data acquisition was performed using the following parameters: a resolution of 30,000; an automatic gain control (AGC) target of 1 × 10^5; normalized collision energies (NCEs) of 20, 40, and 70 eV; and a maximum injection time (IT) of 50 ms.
Data acquisition was executed utilizing Xcalibur 4.3 software (Thermo Fisher Scientific, Waltham, MA, USA). The subsequent analysis of the acquired data was conducted using Thermo Fisher Scientific […] 3.2 software (Thermo Fisher Scientific, Waltham, MA, USA). The workflow’s nodes employed specific parameters: a mass tolerance of 5 ppm, a signal-to-noise threshold of 3, a minimum peak intensity of 1 × 10^5, a maximum peak width of 0.8 min, and a minimum of 3 scans per peak.

[2] = Clinical symptoms of rats in metabolic model; type: in vivo, rat; conditions: SD rats, dose 0.05-0.5 mg/kg per Table 6
Protocol: (§1) Sprague-Dawley male rats (200 ± 20 g) were obtained from SPF (Beijing) Biotechnology Co., Ltd. (Beijing, China). The animals were housed under controlled environmental conditions: Temperature was maintained at 20–25 °C, humidity at 50 ± 10%, and a 12/12 h light/dark cycle was applied. They had ad libitum access to standard laboratory chow and filtered water. A two-week acclimatization period was provided before the experiments began. The 26 SC standards were prepared in normal saline at concentrations of 0.5 mg/mL, 0.1 mg/mL, and 0.05 mg/mL. Each rat was weighed before administration, and the injection dose was adjusted based on body weight. The dosing volume for each rat was maintained at approximately 200 µL.
(§2) 162 Sprague-Dawley (SD) rats were randomly divided into 27 groups, with six rats in each group. The control group received an injection of normal saline, while the remaining groups were injected with 26 different types of SCs. The dosage administered was determined based on pre-experimental results, specifically selecting the dose that produced the highest level of metabolites in the blood samples collected 1 h after tail vein injection at concentrations of 0.5 mg/kg, 0.1 mg/kg, and 0.05 mg/kg, as shown in Table 6. Subsequently, tail vein administration was conducted at the specified dosage. The orbital venous blood was taken from the outer canthus of the rat with capillaries at 15 min and 1 h. Feces were collected after the blood. The rats were then sacrificed, and their brains and livers were dissected. Samples were immediately frozen in liquid nitrogen and stored at −80 °C until analysis.

[3] = Metabolite identification, HLM incubation and rat model combined (UHPLC-Q-Exactive Orbitrap MS); design: species or system human; rat; conditions: for Characteristic Metabolite: characteristic / defining metabolites by the screening criteria; for Number of Metabolites / Number of Phase I Metabolites / Number of Phase II Metabolites: in vitro (HLM) and in vivo (rat) models together
Protocol: as §1, §2
For blood samples, 0.5 mL of each sample was mixed with 1.0 mL of acetonitrile. For brain samples, 0.2 g of tissue was combined with 0.5 mL of acetonitrile. For liver samples, 0.5 g of tissue was mixed with 0.5 mL of acetonitrile. For feces samples, 0.2 g of sample was combined with 1 mL of acetonitrile-water (3:1) for grinding and homogenization. Each mixture was sonicated for 40 min, allowed to precipitate at 4 °C for 30 min, and then centrifuged at 13,500 rpm for 10 min. The supernatant was filtered using a syringe filter (0.45 μm) for further testing.

Row | SMILES | Conversion Rate [1] [%] | Animal manifestations after tail vein drug injection [2] | Characteristic Metabolite [3] | Number of Metabolites [3] | Number of Phase I Metabolites [3] | Number of Phase II Metabolites [3]
1 | CCCCCn1cc(C(=O)c2ccc3ccccc3c2)cc1-c1ccccc1C [JWH-370] | 42.0 | syncope | Dihydrodiol, hydroxylated, and de-N-alkyl side chain metabolites | 14 | 9 | 5
2 | CC(C)C(NC(=O)c1nn(Cc2ccc(F)cc2)c2ccccc12)C(N)=O (centres unmarked) [AB-FUBINACA] | 74.6 | – | Hydrolysis, hydroxylation, and deamination metabolites | 19 | 15 | 4
3 | CCCCCCn1nc(C(=O)NC(C(N)=O)C(C)(C)C)c2ccccc21 (centres unmarked) [ADB-HEXINACA] | 24.8 | – | Deamination, deamidation, amide hydrolysis, and hydroxylation metabolites | 31 | 24 | 7
4 | C=CCCn1nc(C(=O)NC(C(N)=O)C(C)(C)C)c2ccccc21 (centres unmarked) [ADB-3en-BUTINACA] | 98.7 | – | Dihydrodiol, deamination, deamination, and hydroxylation metabolites | 22 | 18 | 4
5 | CN1CCCCC1Cn1cc(C(=O)C2C(C)(C)C2(C)C)c2ccccc21 (centres unmarked) [AB-005] | 60.9 | – | Hydroxylation, de-N-alkyl side chain, dehydrogenation, and dihydroxylation metabolites | 17 | 12 | 5
6 | COC(=O)C(NC(=O)c1nn(CCCCCF)c2ccccc12)C(C)(C)C (centres unmarked) [5F-ADB] | 88.1 | hematuria | Ester hydrolysis, dehydrogenation, and acidification metabolites | 25 | 17 | 8
7 | CC1(C)C(C(=O)c2cn(Cc3ccc(F)cc3)c3ccccc23)C1(C)C [FUB-144] | 30.4 | hematuria | Ketogenic and hydroxylated, hydroxylated, and dehydrogenated metabolites | 18 | 11 | 7
8 | CCOC(=O)C(NC(=O)c1nn(CCCCCF)c2ccccc12)C(C)C (centres unmarked) [5F-EMB-PICA] | 80.6 | – | Ester hydrolysis, amide hydrolysis, and oxidative defluorination metabolite | 19 | 9 | 10
9 | C=CCCCn1nc(C(=O)NC(C(N)=O)C(C)C)c2ccccc21 (centres unmarked) [AB-4en-PINACA] | 98.7 | – | Deamination, hydration, and deamidation metabolites | 18 | 17 | 1
10 | C=CCCCn1nc(C(=O)NC(C(=O)OC)C(C)(C)C)c2ccccc21 (centres unmarked) [MDMB-4en-PINACA] | 69.7 | – | Dihydrodiol, ester hydrolysis, ketogenic, and amide hydrolysis metabolites | 14 | 12 | 2
11 | CCCCCn1cc(C(=O)C2C(C)(C)C2(C)C)c2ccccc21 [UR-144] | 30.5 | – | Hydroxylation, de-N-alkyl side chains, and ketogenic metabolites | 24 | 15 | 9
12 | CC(C)(C)C(NC(=O)c1nn(CC2CCCCC2)c2ccccc12)C(N)=O (centres unmarked) [ADB-CHMINACA] | 62.8 | irritable, with unstable gait and tachypnea | Deamination, deamination of N-alkyl side chains, and hydrolytic metabolites | 25 | 18 | 7
13 | C=CCCCn1nc(C(=O)NC(C(N)=O)C(C)(C)C)c2ccccc21 (centres unmarked) [ADB-4en-PINACA] | 18.2 | – | Deamination, hydration, dihydrodiol, and deamination metabolites | 30 | 25 | 5
14 | CCCCCn1cc(C(=O)NC(C(N)=O)C(C)(C)C)c2cccnc21 (centres unmarked) [ADB-P7AICA] | 42.9 | – | Hydroxylation, deamination, and dehydrogenation metabolites | 40 | 28 | 12
15 | CCCCCn1cc(C(=O)c2ccc3ccccc3c2)cc1-c1ccccc1F [JWH-307] | 55.2 | – | Hydroxylation, ketogenic, and de-N-alkyl side chain metabolites | 20 | 12 | 8
16 | CCCCCn1c(C(=O)c2cccc3ccccc23)nc2ccccc21 [BIM-018] | 93.7 | – | Ketogenic, hydroxylated, and dehydrogenated metabolites | 27 | 13 | 14
17 | O=C(c1cccc2ccccc12)c1nc2ccccc2n1CCCCCF [BIM-2201] | 90.2 | – | Oxidative defluorination, dihydrodiol, and hydroxylated metabolite | 29 | 17 | 12
